# Laboratory results as given in patent publication US20030165545A1, “Ophthalmic compositions including oil-in-water emulsions, and methods for making and using same” (Allergan, Inc., priority 2002, published 2003).
# Like-named read-outs stand apart in the source and are kept apart here.
# Tested on: Intra Ocular Pressure
# Conditions: about 0.131% in a composition of Example 1
# Protocol: Approximately 0.05 mL of the composition is administered directly to the eye at time 0.
smiles,measurement,setting,value
Brc1c(NC2=NCCN2)ccc2nccnc12 [5-bromo-6-(2-imidozolin-2-ylamino) quinoxaline],percent change of Intra Ocular Pressure (mm Hg),1 hr after about 0.05 mL to the eye,−10.4%
same,percent change of Intra Ocular Pressure (mm Hg),2 hr after about 0.05 mL to the eye,−16.0%
same,percent change of Intra Ocular Pressure (mm Hg),4 hr after about 0.05 mL to the eye,−09.5%
same,percent change of Intra Ocular Pressure (mm Hg),6 hr after about 0.05 mL to the eye,−09.4%
